Measured values published in the supplement of paper PMC10307832.

How the values were obtained:
Test in all cases: relative viability (nuclei count vs DMSO), 5 days (fraction); higher = more cells survive
[1] = compound: CC(C)N(CCCNC(=O)Nc1ccc(C(C)(C)C)cc1)C[C@H]1O[C@@H](n2ccc3c(N)ncnc32)[C@H](O)[C@@H]1O + Cc1nc(NC(=O)N2CCC[C@H]2C(N)=O)sc1-c1ccnc(C(C)(C)C(F)(F)F)c1 [Alpelisib] (partner 2 µM)
How it was run: (§1)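 Each reported value is a median over duplicate plates. It expresses relative viability: treated-well nuclei count divided by vehicle-well nuclei count. Lung cancer cell lines in 1536-well plates were dosed by pin tool a day after seeding, alone with one drug or with a fixed anchor-drug dose plus five library-drug doses (not always all listed) in √10 steps, and nuclei were counted after 5 days.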

Shikonin + Phenformin = compound: CC(C)=CC[C@@H](O)C1=CC(=O)c2c(O)ccc(O)c2C1=O [Shikonin] + N=C(N)NC(=N)NCCc1ccccc1 [Phenformin] (partner 250 µM)
How it was run: as §1

Shikonin + Navitoclax = compound: CC(C)=CC[C@@H](O)C1=CC(=O)c2c(O)ccc(O)c2C1=O [Shikonin] + CC1(C)CCC(c2ccc(Cl)cc2)=C(CN2CCN(c3ccc(C(=O)NS(=O)(=O)c4ccc(N[C@H](CCN5CCOCC5)CSc5ccccc5)c(S(=O)(=O)C(F)(F)F)c4)cc3)CC2)C1 [Navitoclax] (partner 0.5 µM)
How it was run: as §1

[2] = compound: CC(C)N(CCCNC(=O)Nc1ccc(C(C)(C)C)cc1)C[C@H]1O[C@@H](n2ccc3c(N)ncnc32)[C@H](O)[C@@H]1O + CCNC(=O)c1noc(-c2cc(C(C)C)c(O)cc2O)c1-c1ccc(CN2CCOCC2)cc1 [Luminespib] (partner 0.01 µM)
How it was run: as §1

Cell Line | relative viability ([1]; first compound 0.08 µM) | relative viability ([1]; first compound 0.253 µM) | relative viability ([1]; first compound 0.8 µM) | relative viability ([1]; first compound 2.53 µM) | relative viability ([1]; first compound 8 µM) | relative viability (Shikonin + Phenformin; first compound 0.01 µM) | relative viability (Shikonin + Phenformin; first compound 0.1 µM) | relative viability (Shikonin + Phenformin; first compound 0.3162 µM) | relative viability (Shikonin + Phenformin; first compound 1 µM) | relative viability (Shikonin + Navitoclax; first compound 0.01 µM) | relative viability (Shikonin + Navitoclax; first compound 0.1 µM) | relative viability (Shikonin + Navitoclax; first compound 0.3162 µM) | relative viability (Shikonin + Navitoclax; first compound 1 µM) | relative viability ([2]; first compound 0.08 µM) | relative viability ([2]; first compound 0.253 µM) | relative viability ([2]; first compound 2.53 µM) | relative viability ([2]; first compound 8 µM) | relative viability ([2]; first compound 0.8 µM)
HCC-366 | 0.394 | 0.442 | 0.366 | 0.367 | 0.41 | 0.62 | 0.644 | 0.663 | 0.597 | 1.08 | 1.06 | 1.09 | 1.08 | – | – | – | – | –
HCC-827 | 0.922 | 0.938 | – | 0.952 | 0.919 | 0.438 | 0.404 | 0.42 | 0.373 | 1.02 | 1.08 | 0.99 | 0.998 | 0.625 | 0.573 | 0.599 | 0.688 | –
HOP-62 | 0.997 | 1.16 | 0.912 | 0.971 | 0.909 | 0.762 | 0.694 | 0.744 | 0.723 | 1.05 | 1.15 | 1.01 | 1.04 | 0.94 | 0.928 | 0.863 | 0.9 | 0.817
IA-LM | 0.667 | 0.759 | 0.787 | 0.701 | 0.723 | – | – | – | – | 0.879 | 0.858 | 0.796 | 0.654 | – | – | – | – | –
LC-2-ad | 0.802 | 0.83 | 0.992 | 0.823 | 0.806 | 0.553 | 0.643 | 0.592 | 0.667 | 0.493 | 0.413 | 0.552 | 0.465 | 0.935 | 0.973 | 0.893 | 1.03 | 1.07
LCLC-97TM1 | 0.251 | – | 0.267 | 0.174 | 0.222 | 0.495 | 0.449 | 0.437 | 0.472 | 0.46 | 0.4 | 0.495 | 0.277 | 0.699 | 0.647 | 0.666 | 0.707 | 0.705
LCLC-103H | 1.03 | 0.905 | 0.907 | 0.99 | 0.898 | 0.372 | 0.335 | 0.341 | 0.34 | – | – | – | – | 0.765 | 0.944 | 0.926 | 0.93 | 0.883
LK-2 | 0.923 | 1.02 | 1.01 | 0.934 | 1.02 | 0.434 | 0.496 | 0.442 | 0.466 | 0.913 | 0.866 | 1.03 | 0.852 | 0.185 | 0.193 | 0.169 | 0.214 | 0.191
LOU-NH91 | 0.631 | 0.679 | – | 0.753 | 0.663 | 0.685 | 0.755 | 0.754 | 0.715 | 0.662 | 0.646 | 0.736 | 0.664 | 0.381 | 0.328 | 0.333 | 0.368 | 0.283
LU99A | 0.477 | 0.445 | 0.54 | 0.555 | 0.503 | 0.859 | 1.15 | 0.758 | 0.791 | 0.924 | 0.88 | 0.833 | 0.766 | 0.234 | 0.277 | 0.317 | 0.222 | 0.253
LXF-289 | 1.01 | 1.05 | 1.07 | 1.09 | 1.04 | 0.533 | 0.526 | 0.535 | 0.535 | 1.01 | 0.873 | 0.96 | 0.967 | 0.731 | 0.679 | 0.669 | 0.71 | 0.65
NCI-H23 | 0.687 | – | 0.695 | 0.684 | 0.668 | 0.864 | 0.812 | 0.849 | 0.717 | 0.821 | 0.748 | 0.935 | 0.781 | 0.224 | 0.23 | 0.233 | 0.21 | 0.199
NCI-H358 | 0.78 | 0.823 | 0.901 | 0.87 | 0.917 | 0.289 | 0.387 | 0.329 | 0.37 | – | – | – | – | 0.441 | 0.235 | 0.0174 | 0.307 | 0.384
NCI-H522 | – | – | – | – | – | 0.663 | 0.713 | 0.601 | 0.623 | – | – | – | – | 0.949 | 1.2 | 1.1 | 1.22 | 1.05
NCI-H650 | 0.984 | 1.09 | 1.21 | 1.13 | 0.958 | 0.462 | 0.462 | 0.447 | 0.426 | – | – | – | – | 0.665 | 0.803 | 0.757 | 0.774 | 0.666
NCI-H661 | 0.692 | 0.61 | 1.03 | 0.63 | 0.645 | 0.251 | 0.292 | 0.275 | 0.291 | – | – | – | – | 0.936 | 0.966 | 0.975 | 0.957 | 0.947
NCI-H1299 | 1.03 | 1.03 | 1.07 | 1.02 | 1.04 | – | – | – | – | 1.03 | 1.09 | 1.06 | 1.05 | – | – | – | – | –
NCI-H1563 | 0.991 | 0.907 | 1.09 | 0.973 | 0.991 | 0.662 | 0.723 | 0.643 | 0.673 | – | – | – | – | 0.474 | 0.542 | 0.533 | 0.515 | 0.592
NCI-H1623 | – | – | – | – | – | 0.551 | 0.601 | 0.592 | 0.603 | – | – | – | – | 0.495 | 0.472 | 0.589 | 0.547 | 0.394
NCI-H1650 | – | – | – | – | – | 0.443 | 0.488 | 0.335 | 0.254 | 1.3 | 1.24 | 1.05 | 1.07 | 0.207 | 0.218 | 0.208 | 0.226 | –
NCI-H1703 | 0.309 | 0.322 | 0.304 | 0.439 | 0.318 | – | – | – | – | 1.12 | 1.08 | 0.991 | 0.19 | – | – | – | – | –
NCI-H2342 | – | – | – | – | – | 0.679 | 0.538 | 0.653 | 0.587 | – | – | – | – | 0.856 | 0.576 | 0.675 | 0.724 | 0.722
SW 900 | – | – | – | – | – | 0.667 | 0.589 | 0.666 | 0.661 | – | – | – | – | 0.166 | 0.165 | 0.185 | 0.19 | –
